Reference: paper PMC9047694, “Phenolic Compounds From the Stems and Leaves of Berchemia lineata (L.) DC” (Frontiers in Chemistry, 2022)

Biological target: α-glucosidase (Saccharomyces cerevisiae, UniProt P53341)
Assay: α-Glucosidase inhibitory assay
Type: biochemical
Conditions: for inhibitory activities against α-glucosidase (in words): conclusion statement; for IC50: 4-nitrophenyl-α-D-glucopyranoside substrate, 37°C, 30 min, absorbance 405 nm, read-out: IC50 (μM), α-glucosidase inhibitory activities
Procedure: IC50 values were calculated from the graph of inhibition percentage against the logarithm of the concentrations of compounds.

α-glucosidase, sequence (P53341 whole entry): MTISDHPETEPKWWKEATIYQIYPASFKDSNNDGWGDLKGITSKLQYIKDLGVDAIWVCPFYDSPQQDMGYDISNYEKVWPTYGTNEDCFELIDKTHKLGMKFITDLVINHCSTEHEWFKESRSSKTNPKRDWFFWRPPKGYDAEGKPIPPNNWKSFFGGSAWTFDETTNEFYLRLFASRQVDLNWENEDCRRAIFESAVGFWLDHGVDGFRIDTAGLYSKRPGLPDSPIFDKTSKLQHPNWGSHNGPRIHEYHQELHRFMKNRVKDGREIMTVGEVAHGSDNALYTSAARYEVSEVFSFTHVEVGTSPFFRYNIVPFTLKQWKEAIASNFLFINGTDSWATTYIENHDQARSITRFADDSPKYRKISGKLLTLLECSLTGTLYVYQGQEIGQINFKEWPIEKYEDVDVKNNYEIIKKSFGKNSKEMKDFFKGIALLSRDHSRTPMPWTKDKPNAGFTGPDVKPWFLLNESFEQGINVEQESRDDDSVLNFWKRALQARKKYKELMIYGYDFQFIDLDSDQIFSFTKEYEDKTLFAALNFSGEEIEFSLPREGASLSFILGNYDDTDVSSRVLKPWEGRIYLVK

inhibitory activities against α-glucosidase (in words) | IC50 [µM] | Compound
 | > 50 | COc1c(O)c(O)cc2c1C(=O)c1c(O)cc(C)cc1C2=O [Compound 18, 2-hydroxyemodin 1-methyl ether]
moderate inhibitory activities | 22.5 | vittarin-B [Compound 9]
moderate inhibitory activities |  | O=c1c(O)c(-c2ccc(O)cc2)oc2cc(O)cc(O)c12 [Compound 15, kaempferol]
moderate inhibitory activities | 28 | COc1cc(O[C@@H]2O[C@H](CO)[C@@H](O)[C@H](O)[C@H]2O)c2c(O)c3c(=O)cc(C)oc3cc2c1 [Compound 11, rubrofusarin-6-O-β-D-glucopyranoside]

Continued, compound first:

Compound | inhibitory activities against α-glucosidase (in words) | IC50 [µM]
O=C1c2c(O)cc(O)cc2O[C@H](c2ccc(O)cc2)[C@H]1O [Compound 17, dihydrokaempferol] | moderate inhibitory activities | 
COc1cc(O[C@@H]2O[C@H](CO[C@@H]3O[C@@H](C)[C@H](O)[C@@H](O)[C@H]3O)[C@@H](O)[C@H](O)[C@H]2O)c2c(O)c3c(=O)cc(C)oc3cc2c1 [Compound 12, rubrofusarin-6-O-α-L-rhamnosyl-(1→6)-O-β-D-glucopyranside] |  | > 50
demethylflavasperone-10-O-β-D-glucopyranoside [Compound 10] |  | > 50
O=c1c(O)c(-c2ccc(O)c(O)c2)oc2cc(O)cc(O)c12 [Compound 14, quercetin] | moderate inhibitory activities | 
